Experiments:
[1] = cited from earlier work
[2] = rapid test for determination of the particle surface charge with standard gelatins; type: physicochemical; settings: rapid test at pH 4.5, standard type A (IEP 9.5) and type B (IEP 3.5) gelatins, 200 bloom
Procedure: In a first rapid test it is determined what charge the precipitated particles have. […] If the particles are, for example, negatively charged, a gelatin is picked which is positively charged under the given pH conditions. This rapid test for the determination of the particle charge has the advantages that it can be carried out without a great outlay in terms of apparatus and time. A time-consuming and inaccurate zeta potential measurement can thus be dispensed with entirely.
At the same dose of the pharmaceutical substance, in the case of the gelatin which is unsuitable in its state of charge a colloidal system will either not form or immediately become unstable or the pharmaceutical substance will flocculate. If the resulting particles are negatively charged, they are stabilized rather by the gelatin solution of Type A, which is positively charged at a pH of 6, than by the solution containing Type B gelatin; in contrast, in this case Type B either will form no colloidal system or the system will immediately destabilize. The flocculation of the particles can be monitored e.g. via a simple turbidity measurement.
Under identical test conditions, the standard type A gelatin (IEP 9.5/200 bloom) yields a briefly stable nanosol.

[3] = cited from earlier work; remark: listed apart in the source

Row | Compound | tmax (time to blood level maximum) ([1]; conventional ibuprofen) | time until therapeutic concentrations are achieved ([1]; in 2 of 8 subjects investigated) | surface charge of the particles [2] | pKa [3]
1 | CC(C)Cc1ccc(C(C)C(=O)O)cc1 (racemic) [ibuprofen, 2-(4-isobutylphenyl)propionic acid] | 1 to 2 h | more than 4 hours |  | 
2 | CC(C(=O)O)c1cccc(C(=O)c2ccccc2)c1 (racemic) [ketoprofen, 2-(3-benzoylphenyl)propionic acid] |  |  | negative surface charge | 5.3
